Results: US8987193B2, “Nisin derivatives and the use thereof” (University College Cork—National University of Ireland, Cork, priority 2008, dated 2015)
Ends that are not written are not given here.

Experiments:
L. plantarum CBC6 = assay: Deferred antagonism assay; assay type: cell-based, Lactobacillus plantarum; parameters: key: + = Enhanced bioactivity relative to control; − = Bioactivity equal to or less than control; NA = no activity evident; settings: producing strain
How it was run: (§1)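 Producer strains replicated on GM17 or GM17 x-gal agar, grown overnight, then overlaid with 0.75% agar seeded with indicator strain. Zone size = diameter of clearing minus 5 mm growth diameter. Purified nisins tested by well diffusion at 37° C overnight; activity in AU/ml from reciprocal of highest active dilution × 20.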

L. monocytogenes CBC2 = assay: Deferred antagonism assay; assay type: cell-based, Listeria monocytogenes; parameters: key: + = Enhanced bioactivity relative to control; − = Bioactivity equal to or less than control; NA = no activity evident; settings: producing strain; L. mono CBC2
How it was run: as §1

L. monocytogenes CBC1 = assay: Deferred antagonism assay; assay type: cell-based, Listeria monocytogenes; parameters: key: + = Enhanced bioactivity relative to control; − = Bioactivity equal to or less than control; NA = no activity evident; settings: producing strain; L. mono CBC1
How it was run: as §1

L. monocytogenes CBC3 = assay: Deferred antagonism assay; assay type: cell-based, Listeria monocytogenes; parameters: key: + = Enhanced bioactivity relative to control; − = Bioactivity equal to or less than control; NA = no activity evident; settings: producing strain; L. mono CBC3
How it was run: as §1

S. aureus CBC4 = assay: Deferred antagonism assay; assay type: cell-based; parameters: key: + = Enhanced bioactivity relative to control; − = Bioactivity equal to or less than control; NA = no activity evident; settings: producing strain
How it was run: as §1

L. lactis CBC8 = assay: Deferred antagonism assay; assay type: cell-based; parameters: key: + = Enhanced bioactivity relative to control; − = Bioactivity equal to or less than control; NA = no activity evident; settings: producing strain
How it was run: as §1

L. lactis CBC7 = assay: Deferred antagonism assay; assay type: cell-based; parameters: key: + = Enhanced bioactivity relative to control; − = Bioactivity equal to or less than control; NA = no activity evident; settings: producing strain
How it was run: as §1

[1] = system: Staph. aureus ST528 (MRSA); assay: Deferred antagonism assay; assay type: cell-based; settings: producing strain, diameter of zone minus diameter of bacterial growth (5 mm), average of duplicates
Method: (§2) Deferred antagonism assays were performed by replicating strains on GM17 or GM17 x-gal agar plates and allowing them to grow overnight before overlaying with either GM17/BHI/TS/MH agar (0.75% w/v agar) seeded with the appropriate indicator strain. Zone size was calculated as the diameter of the zone of clearing minus the diameter of bacterial growth (5 mm) For higher throughput screening of N20PXX, XM21VX, XXK22T and XXX banks deferred antagonism assays were performed by replicating strains using a 96 pin replicator (Boekel) or spotting 5 μl of a fresh overnight culture on GM17 agar plates and allowing them to grow overnight. […] Additional sets of indicators were employed to further assess/reassess the bioactivity of a number of strains. […] For well-diffusion assays molten agar was cooled to 48° C. and seeded with the appropriate indicator strain. The inoculated medium was rapidly transferred into sterile Petri plates in 50 ml volumes, allowed to solidify and dried. Wells (4.6 mm in diameter) were then made in the seeded plates. Purified nisin and mutant nisins were resuspended in 0.005% acetic acid, serially diluted, 50 μl volumes were dispensed into the aforementioned wells and the plates incubated at 37° C. overnight. Bioactivity was expressed as arbitrary units/ml (AU/ml) and calculated as the reciprocal of the highest dilution that gave a definite zone multiplied by the conversion factor (i.e. 20 when 50 μl was used) (Ryan et al., 1996).
(§3) As a consequence of the enhanced activities of K22T and K22S, a more in-depth investigation of this region was carried out. Saturation mutagenesis was undertaken to create a bank of nisin A hinge derivatives containing the vast majority of possible amino acid substitutions for each position. Although pPTPL was used successfully for random mutagenesis, its relatively large size of approx 10.5 kb was considered unsuitable for the complete plasmid PCR amplification approach utilized for saturation mutagenesis. A smaller (approx 6 kb) E. coli-L. lactis shuttle vector pCI372 was considered to be potentially more useful. Its suitability with respect to the in trans expression of nisA was confirmed by the ability of pDFO5 to restore the nisin positive phenotype. Saturation mutagenesis was performed on each codon using pDF05 and oligonucleotides (Table 5) that replace the specific codon with a NNK triplet, potentially encoding all 20 standard amino acids. Following complete plasmid amplification and introduction into the intermediate Top10 host, sequence analysis of a pooled bank of pDF05 derivatives confirmed randomization. Introduction of these variants into L. lactis NZ9800 allowed the expression of mutant nisin A peptides for further analysis. […] 46 residue conversions were isolated. All strains, regardless of bioactivity, were assessed with a view to comprehensively assessing the consequences of each individual hinge alteration.
(§4) Values are an average of duplicate experiments and represent zone size (diameter of zone minus diameter of bacterial growth (i.e. 5 mm) relative to that of the NZ9800 pCI372nisA control. X=Mutants not identified.

[2] = system: Strep. agalactiae ATCC13813; assay: Deferred antagonism assay; assay type: cell-based; settings: producing strain, diameter of zone minus 5 mm, average of duplicates
Method: as §2, §3, §4

Staph. aureus DPC5245 = assay: Deferred antagonism assay; assay type: cell-based; settings: producing strain; diameter of zone minus 5 mm; average of duplicates; St. aureus DPC5245
Method: as §2, §3, §4

C. sporogenes CBC5 = assay: Deferred antagonism assay; assay type: cell-based, Clostridium sporogenes; parameters: key: + = Enhanced bioactivity relative to control; − = Bioactivity equal to or less than control; NA = no activity evident; settings: producing strain
indicator strains = assay: Deferred antagonism assays, various indicator strains (summary); assay type: cell-based; settings: relative to nisin A-producing control; value = strains listed
How it was run: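 Producer strains were replicated on GM17 or GM17 x-gal agar, grown overnight, then overlaid with GM17, BHI, TS or MH soft agar (0.75% w/v) seeded with the indicator strain. Zone size was taken as the clearing diameter minus the diameter of bacterial growth (5 mm).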

Substance	Bioactivity relative to control (L. plantarum CBC6)	Bioactivity relative to control (L. monocytogenes CBC2)	Bioactivity relative to control (L. monocytogenes CBC1)	Bioactivity relative to control (L. monocytogenes CBC3)	Bioactivity relative to control (S. aureus CBC4)	Bioactivity relative to control (L. lactis CBC8)	Bioactivity relative to control (L. lactis CBC7)	zone size relative to that of the NZ9800 pCI372nisA control [1] [%]	zone size relative to that of the NZ9800 pCI372nisA control [2] [%]	zone size relative to that of the NZ9800 pCI372nisA control (Staph. aureus DPC5245) [%]	Bioactivity relative to control (C. sporogenes CBC5)	Strain(s) against which the derivative (producing strain) displays enhanced bioactivity (indicator strains)
K22F: nisin A derivative, hinge substitution K22F (ITSISLCTPGCKTGALMGCNMFTATCHCSIHVSK; cysteine pairing not given here; also: lantibiotic nisin-A; UniProt P13068 24-57, looked up, variant K22F)	−	−	−	−	−	−	−	29	57	56	−	
K22H: nisin A derivative, hinge substitution K22H (ITSISLCTPGCKTGALMGCNMHTATCHCSIHVSK; cysteine pairing not given here; also: lantibiotic nisin-A; UniProt P13068 24-57, looked up, variant K22H)	−	−	−	−	−	−	−	97	104	97	−	
M21F: nisin A derivative, hinge substitution M21F (ITSISLCTPGCKTGALMGCNFKTATCHCSIHVSK; cysteine pairing not given here; also: lantibiotic nisin-A; UniProt P13068 24-57, looked up, variant M21F)	−	−	−	−	−	−	−	20	0	21.5	−	
M21P: nisin A derivative, hinge substitution M21P (ITSISLCTPGCKTGALMGCNPKTATCHCSIHVSK; cysteine pairing not given here; also: lantibiotic nisin-A; UniProt P13068 24-57, looked up, variant M21P)	−	−	−	−	−	−	−	40	0	32	−	
M21W: nisin A derivative, hinge substitution M21W (ITSISLCTPGCKTGALMGCNWKTATCHCSIHVSK; cysteine pairing not given here; also: lantibiotic nisin-A; UniProt P13068 24-57, looked up, variant M21W)	−	−	−	−	−	−	−	12	0	14	−	
N20W: nisin A derivative, hinge substitution N20W (ITSISLCTPGCKTGALMGCWMKTATCHCSIHVSK; cysteine pairing not given here; also: lantibiotic nisin-A; UniProt P13068 24-57, looked up, variant N20W)	−	−	−	−	−	−	−	5.4	0		−	
NisinA N20T (ITSISLCTPGCKTGALMGCTMKTATCHCSIHVSK; not fully specified; also: lantibiotic nisin: dehydrated residues and thioether rings not placed; UniProt P13068 24-57, looked up, variant N20T) [nisin A derivative, hinge substitution N20T]	−	−	−	−	−	−	−	79		90	+	C. sporogenes CBC5
